The text below walks through data of patent US7291612B2, “Immunomodulatory compounds” (Active Biotech A.B., priority 2002, dated 2007).

This test deals with T1, CD80-CD28 interaction (Homo sapiens, UniProt P33681).
T1 construct: mouse Fab fragment (fusion partner)
T1 sequence (P33681 35-242 limits assumed): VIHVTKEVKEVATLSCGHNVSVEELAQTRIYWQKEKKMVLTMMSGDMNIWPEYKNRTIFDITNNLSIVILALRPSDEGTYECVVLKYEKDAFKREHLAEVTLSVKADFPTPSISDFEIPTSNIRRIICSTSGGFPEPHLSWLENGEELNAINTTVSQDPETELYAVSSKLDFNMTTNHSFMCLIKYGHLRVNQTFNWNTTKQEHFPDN
Put plainly: cell free Homogenous Time Resolved Fluorescence (HTRF) assay, inhibition of the CD80-CD28 interaction. It is filed as binding. As to the method:
The examples described above were tested in a cell free Homogenous Time Resolved Fluorescence (HTRF) assay to determine their activity as inhibitors of the CD80-CD28 interaction.
In the assay, europium and allophycocyanin (APC) are associated with CD28 and CD80 indirectly (through antibody linkers) to form a complex, which brings the europium and APC into close proximity to generate a signal. The complex comprises the following six proteins: fluorescent label 1, linker antibody 1, CD28 fusion protein, CD80 fusion protein, linker antibody 2, and fluorescent label 2. The table below describes these reagents in greater detail.
On formation of the complex, europium and APC are brought into proximity and a signal is generated.
Non-specific interaction was measured by substituting a mouse Fab fragment (C215) for the CD80 mouse Fab fragment fusion protein (1.9 μg/ml). The assay was carried out in black 384 well plates in a final volume of 30 μl. Assay buffer: 50 mM Tris-HCl, 150 mM NaCl pH7.8, containing 0.1% BSA (w/v) added just prior to use.
Compounds were added to the above reagents in a concentration series ranging between 100 μM-1.7 nM. The reaction was incubated for 4 hours at room temperature. Dual measurements were made using a Wallac Victor 1420 Multilabel Counter. First measurement: excitation 340 nm, emission 665 nm, delay 50 μs, window time 200 μs. second measurement: excitation 340 nm, emission 615 nm, delay 50 μs, window time 200 μs. Counts were automatically corrected for fluorescence crossover, quenching and background.

The mark [1] stands for this setting: 4 hours at room temperature, read-out: Activity (EC50 in summary form).

Structures can show the parent of a compound that is named as a salt. Where two headings read alike, the source gives them in different places.

A word on the EC50: it is the concentration that produces a half-maximal response. `N[C@H]1CC[C@H](NC(=O)c2cccc(-n3nc4c5cccc(F)c5[nH]cc-4c3=O)c2)CC1` [Example 55]: the EC50 under setting [1] was more than 10000 nM.
Turning to `O=C(NCCCN1CCCC1)c1cccc(-n2nc3c4cccc(F)c4[nH]cc-3c2=O)c1` [Example 56], the EC50 under setting [1] was more than 10000 nM.
For the compound `O=C(NCCCCN1CCCC1)c1cccc(-n2nc3c4cccc(F)c4[nH]cc-3c2=O)c1` [Example 57], under setting [1], the EC50 was in the range of 1000 to 10000 nM.
Same read-out and setting: with `CN(C)CCCCNC(=O)c1cccc(-n2nc3c4cccc(F)c4[nH]cc-3c2=O)c1` [Example 58] the figure was 1000 to 10000 nM; with `COCCNC(=O)c1cccc(-n2nc3c4cccc(F)c4[nH]cc-3c2=O)c1` [Example 59], 1000 to 10000 nM.
Take `CCN(CC)C(=O)c1cccc(-n2nc3c4cccc(F)c4[nH]cc-3c2=O)c1` [Example 60]: the concentration giving a half-maximal response (EC50) under setting [1] was more than 10000 nM.
Same read-out and setting: the value for `COC(=O)CNC(=O)c1cccc(-n2nc3c4cccc(F)c4[nH]cc-3c2=O)c1` [Example 61] was more than 10000 nM.
Still for that read-out and setting: with `C#CCNC(=O)c1cccc(-n2nc3c4cccc(F)c4[nH]cc-3c2=O)c1` [Example 62] the figure was 1000 to 10000 nM; with `CN(Cc1ccccc1)C(=O)c1cccc(-n2nc3c4cccc(F)c4[nH]cc-3c2=O)c1` [Example 63], 1000 to 10000 nM.
On the same count and under the same terms, the value for `CCOC(=O)C1CCN(C(=O)c2cccc(-n3nc4c5cccc(F)c5[nH]cc-4c3=O)c2)CC1` [Example 64] was more than 10000 nM.
Turning to `CN(C)CCCNC(=O)c1ccc(-n2nc3c4ccccc4[nH]c(C4CC4)c-3c2=O)cc1` [Example 65, N-(3-Dimethylaminopropyl)-4-(4-cyclopropyl-3-oxo-3,5-dihydro-pyrazolo[4,3-c]quinolin-2-yl]-benzamide], the EC50 under setting [1] is less than 1000 nM.
On the same count and under the same terms, the value for `CN(C)CCCNC(=O)c1ccc(-n2nc3c4cccc(F)c4[nH]cc-3c2=O)cc1` [Example 66, N-(3-Dimethylaminopropyl)-4-(6-fluoro-3-oxo-3,5-dihydro-pyrazolo[4,3-c]quinolin-2-yl]-benzamide hydrochloride] was less than 1000 nM; that for `O=C(c1ccc(-n2nc3c4cccc(F)c4[nH]cc-3c2=O)cc1)N1CCCCC1` [Example 67] was 1000 to 10000 nM.
Same read-out and setting: the value for `O=C(NCc1ccccc1)c1ccc(-n2nc3c4cccc(F)c4[nH]cc-3c2=O)cc1` [Example 68] was less than 1000 nM; that for `CN(Cc1ccccc1)C(=O)c1ccc(-n2nc3c4cccc(F)c4[nH]cc-3c2=O)cc1` [Example 69] was 1000 to 10000 nM.
On the same count and under the same terms, with `COCCNC(=O)c1ccc(-n2nc3c4cccc(F)c4[nH]cc-3c2=O)cc1` [Example 70] the figure was less than 1000 nM.
For the compound `CN(C)CCNC(=O)c1ccc(-n2nc3c4cccc(F)c4[nH]cc-3c2=O)cc1` [Example 71], the EC50 under setting [1] was less than 1000 nM.
On to `COC(=O)CNC(=O)c1ccc(-n2nc3c4cccc(F)c4[nH]cc-3c2=O)cc1` [Example 72], for which, under setting [1], the EC50 was less than 1000 nM.
As to `COCCCNC(=O)c1ccc(-n2nc3c4cccc(F)c4[nH]cc-3c2=O)cc1` [Example 73], the EC50 under setting [1] is less than 1000 nM.
On the same count and under the same terms, the value for `O=C(NCCC1=CCCCC1)c1ccc(-n2nc3c4cccc(F)c4[nH]cc-3c2=O)cc1` [Example 75] was 1000 to 10000 nM; that for `O=C(NCC1CCCCC1)c1ccc(-n2nc3c4cccc(F)c4[nH]cc-3c2=O)cc1` [Example 76] was 1000 to 10000 nM.
The same measure, in the same setting: the value for `CCNC(=O)c1ccc(-n2nc3c4cccc(F)c4[nH]cc-3c2=O)cc1` [Example 77] was less than 1000 nM.
On the same count and under the same terms, the value for `CCN(CC)C(=O)c1ccc(-n2nc3c4cccc(F)c4[nH]cc-3c2=O)cc1` [Example 78] was 1000 to 10000 nM; that for `N[C@H]1CC[C@H](NC(=O)c2ccc(-n3nc4c5cccc(F)c5[nH]cc-4c3=O)cc2)CC1` [Example 79] was less than 1000 nM.
Turning to `CN(C)CCCN(C)C(=O)c1ccc(-n2nc3c4cccc(F)c4[nH]cc-3c2=O)cc1` [Example 80], the EC50 under setting [1] is less than 1000 nM.
On to `CN(C)CCCCNC(=O)c1ccc(-n2nc3c4cccc(F)c4[nH]cc-3c2=O)cc1` [Example 81], for which, under setting [1], the EC50 is less than 1000 nM.
Still for that read-out and setting: the value for `O=C(NCCCCN1CCCC1)c1ccc(-n2nc3c4cccc(F)c4[nH]cc-3c2=O)cc1` [Example 82] was less than 1000 nM.
For the compound `O=C(NCCCN1CCCC1)c1ccc(-n2nc3c4cccc(F)c4[nH]cc-3c2=O)cc1` [Example 83], the EC50 is, setting by setting: under setting [1], less than 1000 nM; (read-out: EC50) 90 nM.
With `O=C(NCCN1CCN(Cc2ccccc2)CC1)c1ccc(-n2nc3c4cccc(F)c4[nH]cc-3c2=O)cc1` [Example 84], the concentration giving a half-maximal response (EC50) under setting [1] is less than 1000 nM.
Same read-out and setting: the value for `CN(C)CCCNC(=O)c1ccc(-n2nc3c4ccccc4[nH]cc-3c2=O)cc1` [Example 86] was less than 1000 nM.
On the same count and under the same terms, with `CCN(CC)CCCCNC(=O)c1ccc(-n2nc3c4ccccc4[nH]cc-3c2=O)cc1` [Example 88] the figure was 1000 to 10000 nM.
Take `CN(C)CCCN(C)C(=O)c1ccc(-n2nc3c4ccccc4[nH]cc-3c2=O)cc1` [Example 89]: the EC50 under setting [1] was 1000 to 10000 nM.
On the same count and under the same terms, with `CN(C)CCCNC(=O)c1ccc(-n2nc3c4cccc(F)c4[nH]cc-3c2=O)cc1Cl` [Example 90] the figure was 1000 to 10000 nM; with `O=C(NCCCN1CCCC1)c1ccc(-n2nc3c4ccccc4[nH]cc-3c2=O)cc1` [Example 91], 1000 to 10000 nM; with `O=C(NCCCN1CCN(Cc2c(F)cccc2Cl)CC1)c1ccc(-n2nc3c4ccccc4[nH]cc-3c2=O)cc1` [Example 92], 1000 to 10000 nM.
On the same count and under the same terms, with `CN1CCN(CCCNC(=O)c2ccc(-n3nc4c5ccccc5[nH]cc-4c3=O)cc2)CC1` [Example 93] the figure was 1000 to 10000 nM; with `O=C(NCCN1CCN(Cc2ccccc2)CC1)c1ccc(-n2nc3c4ccccc4[nH]cc-3c2=O)cc1` [Example 94], 1000 to 10000 nM; with `O=C(NCCCN1CCN(Cc2c(F)cccc2Cl)CC1)c1ccc(-n2nc3c4cccc(F)c4[nH]cc-3c2=O)cc1` [Example 95], less than 1000 nM.
In the case of `CCN(CC)CCCC(C)NC(=O)c1ccc(-n2nc3c4cccc(F)c4[nH]cc-3c2=O)cc1` (centres unmarked) [Example 97], under setting [1], the EC50 was less than 1000 nM.
On the same count and under the same terms, the value for `CN1CCN(CCCNC(=O)c2ccc(-n3nc4c5cccc(F)c5[nH]cc-4c3=O)cc2)CC1` [Example 98] was less than 1000 nM; that for `O=C(NCCCCN1CCCC1)c1ccc(-n2nc3c4cccc(F)c4[nH]cc-3c2=O)c(Cl)c1` [Example 99] was 1000 to 10000 nM; that for `CN1CCN(CCCNC(=O)c2ccc(-n3nc4c5cccc(F)c5[nH]cc-4c3=O)cc2Cl)CC1` [Example 100] was 1000 to 10000 nM.
On the same count and under the same terms, with `CCN(CC)CCCCNC(=O)c1ccc(-n2nc3c4cccc(F)c4[nH]cc-3c2=O)cc1Cl` [Example 102] the figure was 1000 to 10000 nM.
Still for that read-out and setting: the value for `CN(C)CCCNC(=O)c1ccc(-n2nc3c4cccc(F)c4[nH]cc-3c2=O)c(Cl)c1` [Example 103] was 1000 to 10000 nM; that for `O=C(NCCCCN1CCCC1)c1ccc(-n2nc3c4ccccc4[nH]c(C4CC4)c-3c2=O)cc1` [Example 104] was less than 1000 nM.
As for `O=C(c1ccc(-n2nc3c4cccc(F)c4[nH]cc-3c2=O)cc1)N1CCN(Cc2ccc(Cl)cc2)CC1` [Example 105], under setting [1], the EC50 is more than 10000 nM.
Same read-out and setting: with `CN(CCCNC(=O)c1ccc(-n2nc3c4cccc(F)c4[nH]cc-3c2=O)cc1)c1ccccc1` [Example 106] the figure was less than 1000 nM; with `CC1CCCCN1CCCNC(=O)c1ccc(-n2nc3c4cccc(F)c4[nH]cc-3c2=O)cc1Cl` (centres unmarked) [Example 108], 1000 to 10000 nM; with `CN(C)c1ccc(CNC(=O)c2ccc(-n3nc4c5cccc(F)c5[nH]cc-4c3=O)cc2)cc1` [Example 109], less than 1000 nM.
